These results are taken from US20180148418A1, “AMIDO-SUBSTITUTED CYCLOHEXANE DERIVATIVES” (Bayer Pharma Aktiengesellschaft, priority 2015, published 2018).

Assay [1] relates to HEK293 cells cotransfected with the FOP control vector. Put plainly: HEK293 FOP assay (control reporter with non-functional TCF elements). Type of assay: cell-based. Particulars: Homo sapiens, 16 hours. In short, it runs like this:
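Compound series from 50 μM down to 15 nM, prediluted in DMSO then 50-fold into CAFTY buffer (pH 7.4, 2 mM Ca2+, 0.01% BSA), tested alongside TOP cells on a Geneticin-selected HEK293 FOP line whose TCF elements are replaced by a random sequence; recombinant human Wnt-3a applied at 2500-5 ng/ml.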

The target in assay [2] is T1, TNKS2 (Homo sapiens, UniProt Q9H2K2).
T1 construct: purchased BPS Bioscience, San Diego, USA 80572 (TNKS2 Histone Ribosylation Assay Kit)
T1 sequence (Q9H2K2 1-1166): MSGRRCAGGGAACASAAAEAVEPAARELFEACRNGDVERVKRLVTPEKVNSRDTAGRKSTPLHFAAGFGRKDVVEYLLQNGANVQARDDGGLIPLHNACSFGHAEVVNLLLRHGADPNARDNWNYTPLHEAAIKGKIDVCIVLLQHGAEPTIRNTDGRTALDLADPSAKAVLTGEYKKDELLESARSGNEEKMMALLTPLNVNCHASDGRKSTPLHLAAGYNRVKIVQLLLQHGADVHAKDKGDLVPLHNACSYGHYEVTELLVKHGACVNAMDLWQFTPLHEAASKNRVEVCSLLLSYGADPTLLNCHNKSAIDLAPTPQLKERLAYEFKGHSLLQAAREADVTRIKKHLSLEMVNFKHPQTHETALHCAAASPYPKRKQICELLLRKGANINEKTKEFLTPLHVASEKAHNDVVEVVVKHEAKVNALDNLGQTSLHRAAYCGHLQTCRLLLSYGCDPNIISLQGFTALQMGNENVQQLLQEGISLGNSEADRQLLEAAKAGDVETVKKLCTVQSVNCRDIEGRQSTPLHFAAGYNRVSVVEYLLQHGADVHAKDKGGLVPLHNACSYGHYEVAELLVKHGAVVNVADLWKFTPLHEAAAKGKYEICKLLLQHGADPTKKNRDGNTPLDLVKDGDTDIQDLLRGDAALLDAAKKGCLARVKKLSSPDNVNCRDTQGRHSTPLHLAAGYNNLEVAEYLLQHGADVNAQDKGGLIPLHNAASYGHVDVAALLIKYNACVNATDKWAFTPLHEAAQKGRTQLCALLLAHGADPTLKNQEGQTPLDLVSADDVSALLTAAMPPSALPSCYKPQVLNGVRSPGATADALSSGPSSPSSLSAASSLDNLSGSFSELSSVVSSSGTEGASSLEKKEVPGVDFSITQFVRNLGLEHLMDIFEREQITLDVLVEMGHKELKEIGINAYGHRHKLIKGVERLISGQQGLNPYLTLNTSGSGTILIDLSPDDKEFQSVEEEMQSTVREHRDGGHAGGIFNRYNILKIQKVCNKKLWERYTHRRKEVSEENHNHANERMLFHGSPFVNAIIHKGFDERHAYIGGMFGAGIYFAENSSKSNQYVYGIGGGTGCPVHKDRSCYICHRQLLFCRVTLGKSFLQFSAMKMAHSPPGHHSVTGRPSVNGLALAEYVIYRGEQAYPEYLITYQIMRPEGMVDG
In words: TNKS2 Assay B (auto-parsylation, [3H]-NAD+ SPA). Format: biochemical. The following applies: 6 nM TNKS2, auto-parsylation, over night at room temperature.

Assay [3] relates to wildtype Wnt signaling cascade. Put plainly: HEK293 TOP assay (Super TopFlash luciferase reporter, Wnt-3a stimulated). Format: cell-based. The following applies: Homo sapiens, HEK293, 16 h, HEK293 TOP reporter cells, Wnt3a at EC50, 16 hours. The gist of the method:
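Compound series (50 μM down to 15 nM, 3.16-fold) diluted from DMSO 50-fold into CAFTY buffer, pH 7.4, 2 mM Ca^2+, 0.01% BSA, applied to Wnt-3a-stimulated HEK293 TopFlash and FOP reporter lines in parallel. Cells seeded 10000/well 24 h before; luciferase signal measured.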
(In general: A reporter such as luciferase makes a cellular process visible.)

For `O=C(N[C@H]1CC[C@H](C(=O)Nc2ccc(F)cc2Cl)CC1)c1c[nH]c2ccccc12` [Example 252, N-{trans-4-[(2-chloro-4-fluorophenyl)carbamoyl]cyclohexyl}-1H-indole-3-carboxamide], the figures for the IC50 in assay [1], in assay [2] and in assay [3] were ≥ 50000 nM, > 10000 nM and ≥ 50000 nM, respectively.

On to `CNC(=O)c1nc[nH]c1C(=O)N[C@H]1CC[C@@]2(CCCN(c3ccc(F)cc3Cl)C2=O)CC1` [Example 159], for which the IC50 in assay [1] is ≥ 50000 nM; in assay [2] it was 130 nM; in assay [3] it was 14 nM.

`Cc1cc(NC(=O)[C@H]2CC[C@H](NC(=O)c3cnn4cccnc34)CC2)c(Cl)cn1` [Example 153, N-{trans-4-[(5-chloro-2-methylpyridin-4-yl)carbamoyl]cyclohexyl}pyrazolo[1,5-a]pyrimidine-3-carboxamide]: the IC50 was ≥ 50000 nM in assay [1], 170 nM in assay [2] and 530 nM in assay [3].

With `O=C(N[C@H]1CC[C@@]2(CCCN(c3ccc(F)cc3Cl)C2=O)CC1)c1[nH]cnc1C(=O)N1CC(F)C1` [Example 327, N-[(trans)-2-(2-chloro-4-fluorophenyl)-1-oxo-2-azaspiro[5.5]undec-9-yl]-4-[(3-fluoroazetidin-1-yl)carbonyl]-1H-imidazole-5-carboxamide], the IC50 stood at 31000 nM in assay [1], 29 nM in assay [2] and 7 nM in assay [3].

Consider `CNC(=O)c1nc[nH]c1C(=O)N[C@H]1CC[C@H](C(=O)Nc2c(Cl)cc(F)cc2C#N)CC1` [Example 174, N^5-{trans-4-[(2-chloro-6-cyano-4-fluorophenyl)carbamoyl]cyclohexyl}-N^4-methyl-1H-imidazole-4,5-dicarboxamide], for which the IC50 in assay [1] was ≥ 50000 nM; in assay [2] it was 240 nM; in assay [3], 79 nM.

As for `Cc1cc(N2CCC[C@]3(CC[C@@H](NC(=O)c4[nH]cnc4C(=O)NC4CC4)CC3)C2=O)c(Cl)cc1F` [Example 308, N^5-[(trans)-2-(2-chloro-4-fluoro-5-methylphenyl)-1-oxo-2-azaspiro[5.5]undec-9-yl]-N^4-cyclopropyl-1H-imidazole-4,5-dicarboxamide], the IC50 in assay [1] was found to be 11000 nM; in assay [2], 110 nM; in assay [3] it was 5.4 nM.

For `N#Cc1cc(F)cc(Cl)c1NC(=O)[C@H]1CC[C@H](NC(=O)c2cnn3cccnc23)CC1` [Example 152, N-{trans-4-[(2-chloro-6-cyano-4-fluorophenyl)carbamoyl]cyclohexyl}pyrazolo[1,5-a]pyrimidine-3-carboxamide], the results for the IC50 in assay [1], in assay [2] and in assay [3] were ≥ 50000 nM, 140 nM and 91 nM, respectively.

Consider `O=C(N[C@H]1CC[C@@]2(CCN(c3ccc(F)cc3Cl)C2=O)CC1)c1cnn2ccc(N3CCOCC3)nc12` [Example 231, N-[(trans)-2-(2-chloro-4-fluorophenyl)-1-oxo-2-azaspiro[4.5]dec-8-yl]-5-(morpholin-4-yl)pyrazolo[1,5-a]pyrimidine-3-carboxamide], for which the values for the half-inhibitory concentration (IC50) in assay [1], in assay [2] and in assay [3] were ≥ 500 nM, 3.8 nM and 8 nM, respectively.

Turning to `CC(C)NC(=O)c1nc[nH]c1C(=O)N[C@H]1CC[C@@]2(CCCN(c3cc(F)c(F)cc3Cl)C2=O)CC1` [Example 321, N^5-[(trans)-2-(2-chloro-4,5-difluorophenyl)-1-oxo-2-azaspiro[5.5]undec-9-yl]-N^4-(propan-2-yl)-1H-imidazole-4,5-dicarboxamide], the IC50 came out at 24000 nM in assay [1], 52 nM in assay [2] and 6 nM in assay [3].

As for `O=C(N[C@H]1CC[C@@]2(CCN(c3ccc(F)cc3Cl)C2=O)CC1)c1[nH]cnc1C(=O)N1CC(O)C1` [Example 192, N-[(trans)-2-(2-chloro-4-fluorophenyl)-1-oxo-2-azaspiro[4.5]dec-8-yl]-4-[(3-hydroxyazetidin-1-yl)carbonyl]-1H-imidazole-5-carboxamide], the results for the IC50 in assay [1], in assay [2] and in assay [3] were ≥ 50000 nM, 5.3 nM and 0.21 nM, respectively.

Regarding `O=C(N[C@H]1CC[C@@]2(CCN(c3ccc(F)cc3Cl)C2=O)CC1)c1[nH]cnc1C(=O)N1CC(C(F)F)C1` [Example 190, N-[(trans)-2-(2-chloro-4-fluorophenyl)-1-oxo-2-azaspiro[4.5]dec-8-yl]-4-{[3-(difluoromethyl)azetidin-1-yl]carbonyl}-1H-imidazole-5-carboxamide], the IC50 in assay [1] is 12000 nM; in assay [2], 2.8 nM; in assay [3] it was 0.06 nM.

Regarding `Cc1cc(C2CC2)n2ncc(C(=O)N[C@H]3CC[C@H](C(=O)Nc4ccc(F)cc4Cl)CC3)c2n1` [Example 204, N-{trans-4-[(2-chloro-4-fluorophenyl)carbamoyl]cyclohexyl}-7-cyclopropyl-5-methylpyrazolo[1,5-a]pyrimidine-3-carboxamide], the IC50 was ≥ 50000 nM in assay [1], 160 nM in assay [2] and 48 nM in assay [3].

With `O=C(NCCN1CCOCC1)c1nc[nH]c1C(=O)N[C@H]1CC[C@@]2(CCN(c3cccc(Cl)c3)C2=O)CC1` [Example 287, N^5-[(trans)-2-(3-chlorophenyl)-1-oxo-2-azaspiro[4.5]dec-8-yl]-N^4-[2-(morpholin-4-yl)ethyl]-1H-imidazole-4,5-dicarboxamide], the IC50 in assay [1] is ≥ 50000 nM; in assay [2] it was 21 nM; in assay [3], 69 nM.

On to `O=C(N[C@H]1CC[C@@]2(CCN(c3ccc(F)cc3Cl)C2=O)CC1)c1c[nH]c2cccnc12` [Example 236, N-[(trans)-2-(2-chloro-4-fluorophenyl)-1-oxo-2-azaspiro[4.5]dec-8-yl]-1H-pyrrolo[3,2-b]pyridine-3-carboxamide], for which the values for the IC50 in assay [1], in assay [2] and in assay [3] were ≥ 50000 nM, 19 nM and 350 nM, respectively.

`Cc1cc(N2CC[C@]3(CC[C@@H](NC(=O)c4[nH]cnc4C(=O)N4CC(F)C4)CC3)C2=O)c(Cl)cc1F` [Example 292, N-[(trans)-2-(2-chloro-4-fluoro-5-methylphenyl)-1-oxo-2-azaspiro[4.5]dec-8-yl]-4-[(3-fluoroazetidin-1-yl)carbonyl]-1H-imidazole-5-carboxamide]: the IC50 came out at 10000 nM in assay [1], 8.8 nM in assay [2] and 1.6 nM in assay [3].

For `Cn1cc(C(=O)N[C@H]2CC[C@@]3(CCN(c4ccc(F)cc4Cl)C3=O)CC2)c2ncccc21` [Example 343, N-[(trans)-2-(2-chloro-4-fluorophenyl)-1-oxo-2-azaspiro[4.5]dec-8-yl]-1-methyl-1H-pyrrolo[3,2-b]pyridine-3-carboxamide], the results for the IC50 in assay [1], in assay [2] and in assay [3] were 24000 nM, 16 nM and 2.3 nM, respectively.

Regarding `CC1C[C@]2(CC[C@@H](NC(=O)c3cnn4cccnc34)CC2)C(=O)N1c1ccc(F)cc1Cl` (mixture of isomers) [Example 355, N-[(trans)-2-(2-chloro-4-fluorophenyl)-3-methyl-1-oxo-2-azaspiro[4.5]dec-8-yl]pyrazolo[1,5-a]pyrimidine-3-carboxamide (mixture of isomers at C3)], the IC50 in assay [1] was ≥ 50000 nM; in assay [2] it was 8.4 nM; in assay [3], 3.4 nM.

As to `Cc1cc(N2CC[C@]3(CC[C@@H](NC(=O)c4[nH]cnc4C(=O)N4CC(OC(F)F)C4)CC3)C2=O)c(Cl)cc1F` [Example 296, N-[(trans)-2-(2-chloro-4-fluoro-5-methylphenyl)-1-oxo-2-azaspiro[4.5]dec-8-yl]-4-{[3-(difluoromethoxy)azetidin-1-yl]carbonyl}-1H-imidazole-5-carboxamide], the IC50 was 35000 nM in assay [1], 8.3 nM in assay [2] and 1.3 nM in assay [3].

For orientation: IC50 means the concentration that gives 50% inhibition.
